Converted amounts (≈) assume the structure as drawn. Counter-ions that a name gives are not always drawn. Like-named read-outs stand apart in the source and are kept apart here.
Tests used:
[1] = Solubility evaluation in aqueous buffer; assay type: physicochemical; details: for solubility: aqueous buffer, 25 °C, thermodynamic from solid
Procedure: The solid powder of an individual prodrug was equilibrated in aqueous buffers of pH 1, 4 and 6.5 at 25° C. for about 24 hours. After equilibration, the excess solid was separated by filtration using 0.45 μm membrane filter and the filtrate was collected in suitable glass vial. The filtrate was diluted appropriately using respective buffers/diluent and analyzed by a reversed phase LC method with UV detection.

[2] = Stability evaluation in aqueous buffer; assay type: physicochemical; details: about 50 μg/mL, about 15% v/v acetonitrile; for half-life: aqueous buffer, 37° C.
Procedure: The stability study of an individual prodrug was conducted with about 50 μg/mL solutions in aqueous buffers of pH 1 (0.1 M HCl), 4 (acetate buffer) and 6.5 (phosphate buffer) at 37° C. for 24 hours. About 15% v/v acetonitrile was used in these pH buffers as a co-solvent to obtain clear solutions of prodrugs. The sample analysis was carried out using a generic reversed phase liquid chromatographic (LC) method with UV detection. The area percent (AP) loss of the prodrug peak was quantified as a function of time. The appearance of parent peak was identified from the chromatographic retention time. The half-life (t1/2, h) of the prodrug was calculated by using a pseudo-first order equation from a AP loss vs time plot.

[3] = aqueous buffer pH 4, 25° C., about 24 hours equilibration, ditrifluoroacetate
[4] = aqueous buffer pH 6.5, 25° C., about 24 hours equilibration, ditrifluoroacetate
[5] = pH 1, simulated gastric fluid, aqueous buffer pH 1, 25° C., about 24 hours equilibration, read-out: Solubility (mg/mL) at 25° C. pH 1
[6] = pH 1, pH 1 (0.1 M HCl), read-out: Stability (t1/2, h) at 37° C. pH 1 (converted)
[7] = pH 4, pH 4 (acetate buffer), read-out: Stability (t1/2, h) at 37° C. pH 4 (converted)
[8] = pH 6.5, pH 6.5 (phosphate buffer), read-out: Stability (t1/2, h) at 37° C. pH 6.5 (converted)
[9] = pH 4, aqueous buffer, aqueous buffer pH 4, 25° C., about 24 hours equilibration, read-out: Solubility (mg/mL) at 25° C. pH 4
[10] = pH 6.5, aqueous buffer, aqueous buffer pH 6.5, 25° C., about 24 hours equilibration, read-out: Solubility (mg/mL) at 25° C. pH 6.5

Structure (SMILES) | Solubility (mg/mL) at 25° C. pH 4 [1, 3] [mg/mL] | Solubility (mg/mL) at 25° C. pH 6.5 [1, 4] [mg/mL] | solubility [1, 5] [mg/mL] | half-life [2, 6] [h] | half-life [2, 7] [h] | half-life [2, 8] [h] | Solubility (mg/mL) at 25° C. pH 1 ([1]; aqueous buffer pH 1, 25° C., about 24 hours equilibration, ditrifluoroacetate) [mg/mL] | Stability (t1/2, h) at 37° C. pH 1 ([2]; pH 1 (0.1 M HCl)) [h] | Stability (t1/2, h) at 37° C. pH 4 ([2]; pH 4 (acetate buffer), ditrifluoroacetate) [h] | Stability (t1/2, h) at 37° C. pH 6.5 ([2]; pH 6.5 (phosphate buffer), ditrifluoroacetate) [h] | solubility [1, 9] [mg/mL] | solubility [1, 10] [mg/mL] | pH dependence of aqueous solubility ([1]; pH of 1 versus pH of 4 or pH of 6)
Cc1c(-c2[nH]c3ccc(C4CC[N+](COC(=O)N(C)CCOP(=O)(O)O)(CC(N)=O)CC4)cc3c2C(C)C)cn2ncnc2c1C (single isomer, unassigned) [Example 20, 1-(2-Amino-2-oxoethyl)-4-(2-(7,8-dimethyl-[1,2,4]triazolo[1,5-a]pyridin-6-yl)-3-isopropyl-1H-indol-5-yl)-1-(((methyl(2-(phosphonooxy)ethyl)carbamoyl)oxy)methyl) piperidin-1-ium trifluoroacetate] | – | – | > 1.16 | > 500 | > 500 | > 500 | – | – | – | – | > 1.87 | > 2.08 | –
Cc1c(-c2[nH]c3ccc(C4CCN(CC(N)=O)CC4)cc3c2C(C)C)cn2nc[n+](COC(=O)N(C)CCOP(=O)(O)O)c2c1C (single isomer, unassigned) [Example 21, 6-(5-(1-(2-amino-2-oxoethyl)piperidin-4-yl)-3-isopropyl-1H-indol-2-yl)-7,8-dimethyl-1-(((methyl(2-(phosphonooxy)ethyl)carbamoyl)oxy)methyl)-[1,2,4]triazolo[1,5-a]pyridin-1-ium trifluoroacetate] | – | – | > 1.75 | > 500 | > 500 | > 500 | – | – | – | – | 0.25 | 0.55 | –
Cc1c(-c2[nH]c3ccc(C4CCN(CC(N)=O)CC4)cc3c2C(C)C)cn2ncnc2c1C [Compound A, 2-(4-(2-(7,8-dimethyl-[1,2,4]triazolo[1,5-a]pyridin-6-yl)-3-isopropyl-1H-indol-5-yl)piperidin-1-yl)acetamide, reference compound] | – | – | 1.56 (≈ 3510 µM) | – | – | – | – | – | – | – | 0.05 (≈ 112 µM) | < 0.01 | higher solubility at pH of 1 than at pH of 4 or pH of 6
CNCC(=O)n1c(-c2cn3ncnc3c(C)c2C)c(C(C)C)c2cc(C3CCN(CC(N)=O)CC3)ccc21 [Example 5, 2-(4-(2-(7,8-Dimethyl-[1,2,4]triazolo[1,5-a]pyridin-6-yl)-3-isopropyl-1-(methylglycyl)-1H-indol-5-yl)piperidin-1-yl)acetamide ditrifluoroacetate] | – | – | > 2.84 | > 500 | 233 | 4.5 | – | – | – | – | > 2.15 | 1.19 (≈ 2310 µM) | –
CNCC(=O)OCc1cccnc1N(C)C(=O)OC[N+]1(CC(N)=O)CCC(c2ccc3[nH]c(-c4cn5ncnc5c(C)c4C)c(C(C)C)c3c2)CC1 (stereo not shown) [Example 12, 1-(2-Amino-2-oxoethyl)-4-(2-(7,8-dimethyl-[1,2,4]triazolo[1,5-a]pyridin-6-yl)-3-isopropyl-1H-indol-5-yl)-1-(((methyl(3-(((methylglycyl)oxy)methyl)pyridin-2-yl)carbamoyl)oxy)methyl)piperidin-1-ium ditrifluoroacetate] | – | – | – | > 500 | 99 | 1.6 | – | – | – | – | – | – | –
CNCC(=O)OCc1cccnc1N(C)C(=O)OC[n+]1cnn2cc(-c3[nH]c4ccc(C5CCN(CC(N)=O)CC5)cc4c3C(C)C)c(C)c(C)c21 [Example 13, 6-(5-(1-(2-Amino-2-oxoethyl)piperidin-4-yl)-3-isopropyl-1H-indol-2-yl)-7,8-dimethyl-1-(((methyl(3-(((methylglycyl)oxy)methyl)pyridin-2-yl)carbamoyl)oxy)methyl)-[1,2,4]triazolo[1,5-a]pyridin-1-ium tritrifluoroacetate] | – | – | – | 459 | 99 | 2.5 | – | – | – | – | – | – | –

Second part, led by results:

Solubility (mg/mL) at 25° C. pH 4 [1, 3] [mg/mL] | Solubility (mg/mL) at 25° C. pH 6.5 [1, 4] [mg/mL] | solubility [1, 5] [mg/mL] | half-life [2, 6] [h] | half-life [2, 7] [h] | half-life [2, 8] [h] | Solubility (mg/mL) at 25° C. pH 1 ([1]; aqueous buffer pH 1, 25° C., about 24 hours equilibration, ditrifluoroacetate) [mg/mL] | Stability (t1/2, h) at 37° C. pH 1 ([2]; pH 1 (0.1 M HCl)) [h] | Stability (t1/2, h) at 37° C. pH 4 ([2]; pH 4 (acetate buffer), ditrifluoroacetate) [h] | Stability (t1/2, h) at 37° C. pH 6.5 ([2]; pH 6.5 (phosphate buffer), ditrifluoroacetate) [h] | solubility [1, 9] [mg/mL] | solubility [1, 10] [mg/mL] | Structure (SMILES) | pH dependence of aqueous solubility ([1]; pH of 1 versus pH of 4 or pH of 6)
0.52 | >1.22 | > 1.32 | > 500 | 415 | 108 | – | – | – | – | – | – | Cc1c(-c2c(C(C)C)c3cc(C4CCN(CC(N)=O)CC4)ccc3n2C(=O)OC(C)OC(=O)C2(N)CC2)cn2ncnc2c1C (single isomer, unassigned) [Example 6, 1-((1-Aminocyclopropane-1-carbonyl)oxy)ethyl 5-(1-(2-amino-2-oxoethyl)piperidin-4-yl)-2-(7,8-dimethyl-[1,2,4]triazolo[1,5-a]pyridin-6-yl)-3-isopropyl-1H-indole-1-carboxylate ditrifluoroacetate] | –
>1.21 | 0.34 | – | – | – | – | >1.49 | >500 | >500 | 193 | – | – | Cc1c(-c2c(C(C)C)c3cc(C4CCN(CC(N)=O)CC4)ccc3n2C(=O)OC(C)OC(=O)C2(N)CC2)cn2ncnc2c1C (single isomer, unassigned) [Example 7, 1-((1-Aminocyclopropane-1-carbonyl)oxy)ethyl 5-(1-(2-amino-2-oxoethyl)piperidin-4-yl)-2-(7,8-dimethyl-[1,2,4]triazolo[1,5-a]pyridin-6-yl)-3-isopropyl-1H-indole-1-carboxylate ditrifluoroacetate] | –
– | – | > 1.74 | > 500 | > 500 | 218 | – | – | – | – | > 1.28 | > 1.34 | Cc1c(-c2c(C(C)C)c3cc(C4CCN(CC(N)=O)CC4)ccc3n2C(=O)OC[C@@H]2CCCCN2)cn2ncnc2c1C [Example 1, (S)-Piperidin-2-ylmethyl 5-(1-(2-amino-2-oxoethyl)piperidin-4-yl)-2-(7,8-dimethyl-[1,2,4]triazolo[1,5-a]pyridin-6-yl)-3-isopropyl-1H-indole-1-carboxylate] | –
– | – | > 1.17 | 248 | 283 | 267 | – | – | – | – | 0.24 (≈ 324 µM) | 0.43 (≈ 581 µM) | Cc1c(-c2c(C(C)C)c3cc(C4CCN(CC(N)=O)CC4)ccc3n2C(=O)OC[C@@H]2CCCCN2C(=O)OCOP(=O)(O)O)cn2ncnc2c1C [Example 2, (S)-(1-(((Phosphonooxy)methoxy)carbonyl)piperidin-2-yl)methyl 5-(1-(2-amino-2-oxoethyl)piperidin-4-yl)-2-(7,8-dimethyl-[1,2,4]triazolo[1,5-a]pyridin-6-yl)-3-isopropyl-1H-indole-1-carboxylate] | –
– | – | > 2.43 | > 500 | > 500 | 99 | – | – | – | – | > 2.68 | > 2.44 | Cc1c(-c2c(C(C)C)c3cc(C4CCN(CC(N)=O)CC4)ccc3n2C(=O)OC[C@@H]2CCCN2)cn2ncnc2c1C [Example 3, (S)-Pyrrolidin-2-ylmethyl 5-(1-(2-amino-2-oxoethyl)piperidin-4-yl)-2-(7,8-dimethyl-[1,2,4]triazolo[1,5-a]pyridin-6-yl)-3-isopropyl-1H-indole-1-carboxylate] | –
– | – | > 1.64 | 231 | 257 | 231 | – | – | – | – | 0.91 (≈ 1250 µM) | 0.66 (≈ 909 µM) | Cc1c(-c2c(C(C)C)c3cc(C4CCN(CC(N)=O)CC4)ccc3n2C(=O)OC[C@@H]2CCCN2C(=O)OCOP(=O)(O)O)cn2ncnc2c1C [Example 4, (S)-(1-(((Phosphonooxy)methoxy)carbonyl)pyrrolidin-2-yl)methyl 5-(1-(2-amino-2-oxoethyl)piperidin-4-yl)-2-(7,8-dimethyl-[1,2,4]triazolo[1,5-a]pyridin-6-yl)-3-isopropyl-1H-indole-1-carboxylate] | –
– | – | – | 80 | 7.5 | 0.1 | – | – | – | – | – | – | Cc1c(-c2c(C(C)C)c3cc(C4CCN(CC(N)=O)CC4)ccc3n2C(=O)OCOP(=O)(O)O)cn2ncnc2c1C [Example 16, (Phosphonooxy)methyl 5-(1-(2-amino-2-oxoethyl)piperidin-4-yl)-2-(7,8-dimethyl-[1,2,4]triazolo[1,5-a]pyridin-6-yl)-3-isopropyl-1H-indole-1-carboxylate] | –
– | – | – | 6.4 | 2.9 | 6.3 | – | – | – | – | – | – | Cc1c(-c2c(C(C)C)c3cc(C4CCN(CC(N)=O)CC4)ccc3n2P(=O)(O)O)cn2ncnc2c1C [Example 18, (5-(1-(2-Amino-2-oxoethyl)piperidin-4-yl)-2-(7,8-dimethyl-[1,2,4]triazolo[1,5-a]pyridin-6-yl)-3-isopropyl-1H-indol-1-yl)phosphonate] | –
